Measurements as given in US11564923B2, “Compounds and pharmaceutical compositions thereof for the treatment of inflammatory disorders” (Galapagos NV, priority 2017, dated 2023).
Structures can show the parent of a compound that is named as a salt.

Legend:
[1] = target: T1, Recombinant human JAK1 (catalytic domain, amino acids 866-1154) (Homo sapiens, UniProt P23458); experiment: JAK1 inhibition assay; format: biochemical; settings: read-out: JAK1 potency IC50
T1 construct: catalytic domain, amino acids 866-1154
T1 sequence (P23458 866-1154): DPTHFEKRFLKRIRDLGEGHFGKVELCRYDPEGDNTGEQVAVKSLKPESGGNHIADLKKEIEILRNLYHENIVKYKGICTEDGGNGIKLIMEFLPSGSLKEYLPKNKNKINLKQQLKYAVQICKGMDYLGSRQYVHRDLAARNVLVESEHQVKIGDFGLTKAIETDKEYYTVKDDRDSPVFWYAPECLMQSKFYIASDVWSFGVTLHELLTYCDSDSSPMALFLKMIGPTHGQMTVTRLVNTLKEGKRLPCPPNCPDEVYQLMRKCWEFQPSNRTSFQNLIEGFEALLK
Description: (§1) After 60 min at room temperature, reactions are stopped by adding 20 μL/well of detection mixture (1× detection buffer (Perkin Elmer, catalog number CR97-100), 0.5 nM Europium-anti-phosphotyrosine (PT66) (Perkin Elmer, catalog number AD0068/AD0069), 10 mM EDTA). […] Kinase activity is calculated by subtracting the ratio obtained in the presence of a positive control inhibitor (1 μM staurosporine) from the ratio obtained in the presence of vehicle. The ability of a test compound to inhibit this activity (or percentage inhibition) is determined as:
(§2) [formula] wherein Fluorescent ratio test compound=ratio RFU665/RFU615*1000 determined for sample with test compound present Fluorescent ratio control=ratio RFU665/RFU615*1000 determined for sample with positive control inhibitor Fluorescent ratio vehicle=ratio RFU665/RFU615*1000 determined in the presence of vehicle
(§3) Dose dilution series were prepared for the compounds enabling the testing of dose-response effects in the JAK1 assay and the calculation of the IC50 for the compound. Each compound is routinely tested at concentration of 20 μM followed by a 1/5 serial dilution, 10 points in a final concentration of 1% DMSO. […] The data are expressed as the average IC50 from the assays.

[2] = target: T2, Recombinant human TYK2 catalytic domain (amino acids 871-1187) (Homo sapiens, UniProt P29597); experiment: TYK2 radioactive assay polyGT substrate; format: biochemical; note: 0.1 µM ATP
T2 construct: catalytic domain (amino acids 871-1187)
T2 sequence (P29597 871-1187): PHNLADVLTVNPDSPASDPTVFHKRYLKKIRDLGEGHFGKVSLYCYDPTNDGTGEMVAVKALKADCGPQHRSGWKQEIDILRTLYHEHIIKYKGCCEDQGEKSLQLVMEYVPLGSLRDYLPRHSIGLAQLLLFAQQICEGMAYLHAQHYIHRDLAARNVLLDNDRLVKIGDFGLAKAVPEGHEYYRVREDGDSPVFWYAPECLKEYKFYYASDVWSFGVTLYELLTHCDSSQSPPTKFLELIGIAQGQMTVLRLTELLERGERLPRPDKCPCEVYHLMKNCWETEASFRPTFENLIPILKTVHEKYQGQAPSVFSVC
Summary of the method: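 Reaction at 30° C. for 120 min, ended with 150 mM phosphoric acid, washed, counted; percent inhibition scaled between vehicle and 10 μM staurosporine cpm.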

[3] = target: T3, Recombinant human JAK2 (catalytic domain, amino acids 808-1132) (Homo sapiens, UniProt O60674); experiment: JAK2 inhibition assay; format: biochemical; settings: read-out: JAK2 potency IC50; note: 0.7 µM ATP
T3 construct: catalytic domain, amino acids 808-1132
T3 sequence (O60674 808-1132): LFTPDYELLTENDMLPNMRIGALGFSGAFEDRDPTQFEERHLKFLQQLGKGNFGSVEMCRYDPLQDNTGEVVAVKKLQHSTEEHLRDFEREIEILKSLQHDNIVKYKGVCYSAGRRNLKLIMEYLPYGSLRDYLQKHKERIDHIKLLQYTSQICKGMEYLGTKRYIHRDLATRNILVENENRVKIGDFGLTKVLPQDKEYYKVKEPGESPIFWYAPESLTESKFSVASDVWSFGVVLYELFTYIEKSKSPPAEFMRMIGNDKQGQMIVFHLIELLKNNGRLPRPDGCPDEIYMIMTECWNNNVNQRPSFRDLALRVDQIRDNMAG
Description: as §1, with “CR97-100) with” for “CR97-100),”, “AD0068/AD0069) and” for “AD0068/AD0069),”
as §2
as §3, with “are” for “were”, “compound” for “the compounds”, “JAK2” for “JAK1”

[4] = test system: IL-12 activation of STAT4 in NK-92 cells; experiment: IL-12 activation of STAT4 in NK-92 cells using AphaLISA SureFire technology; format: cell-based; settings: Homo sapiens, NK92; IL-12 activation of STAT4 in NK-92 cells, AlphaLISA SureFire; average IC50; read-out: IL12 pSTAT4 IC50
Description: IL-2 is added freshly to the medium with each medium refreshment step. Cells are cultured in a humidified incubator at 37° C. 5% CO2.
A subcultured fraction of NK-92 cells is washed once in culture medium without rhIL-2 the day before the experiment and incubated overnight in a culture flask.
5% CO2. […] NK-92 cells are triggered with rhIL-12 for 30 min at 37° C. 5% CO2.
After 30 min of cytokine stimulation the cells are lysed by addition of 15 μL 5× lysis buffer (supplemented with the AlphaLISA kit). After 10 minutes, plates are frozen at −80° C. overnight and the next day the levels of phospho-STAT4 are quantified using the AlphaLISA SureFire ULTRA p-STAT4 (Tyr693) (Perkin Elmer, Catalogue number ALSU-PST4-A10K) according to the manufacturers instructions. AlphaLISA signal (relative light units) is measured using an Envision (Perkin Elmer).
(§4) The percentage inhibition is calculated as: […]
RLU(trigger/veh): Relative lumescent signal determined in presence of vehicle and trigger
RLU(test compound): Relative luminescent signal determined in presence of test compounds and trigger
PIN values are plotted for compounds tested in dose-response and IC50 values are derived using GraphPad Prism Software applying non-linear regression (sigmoidal) curve fitting. The data are expressed as the average IC50 from different experiments.

[5] = test system: IFNα activation of STAT1 in PBMC; experiment: IFNα activation of STAT1 in PBMC; format: cell-based; settings: Homo sapiens; IFNα activation of STAT1 in PBMC; average IC50; read-out: IFNα signaling inhibitory potency IC50
Description: After these 2 wash steps the cell pellet is dissolved in ammonium chloride buffer (1.5 M NH4Cl, 100 mM NaHCO3 and 10 mM Na2.EDTA) for lysis of the red blood cells.
PBMC are treated with test compound for 30 min at 37° C. 5% CO2. […] After 30 min of test compound/vehicle pre-treatment, PBMC are stimulated for 30 min at 37° C. 5% CO2 with recombinant human IFNα (PeproTech, catalog number 300-02A) at a final concentration of 5 ng/mL by addition of 20 μL (10× concentrated) cytokine trigger to obtain a final volume of 200 μL per well.
After 30 min of cytokine stimulation, 200 μL of cell suspension is transferred to a 96-well V-bottom plate, centrifugated for 5 min at 1000 rpm to pellet cells, followed by removal of supernatant.
as §4
RCLU(vehicle control): Relative Chemiluminescent signal determined in presence of vehicle and trigger
RCLU(test compound): Relative Chemiluminescent signal determined in presence of test compounds and trigger
RCLU(positive control): Relative Chemiluminescent signal determined in presence of positive control and trigger
PIN values are plotted for compounds tested in dose-response and average IC50 values are derived using GraphiPad Prism Software applying non-linear regression (sigmoidal) curve fitting.

`Cc1cc(C#N)ncc1Oc1cc(Nc2ccc(C(=O)NCC(C)O)nc2)c2ncn(C)c2n1` (centres unmarked) [Compound 30, 5-[5-(6-Cyano-4-methyl-pyridin-3-yloxy)-3-methyl-3H-imidazo[4,5-b]pyridin-7-ylamino]-pyridine-2-carboxylic acid (2-hydroxy-propyl)-amide] showed an IC50 [1] of 399 nM, an IC50 [2] of 55.7 nM and an IC50 [3] of 777 nM.
`Cc1cc(C#N)ncc1Oc1cc(Nc2ccc(CN(C)CCN(C)C)cn2)c2ncn(C)c2n1` [Compound 83, 5-[7-[[5-[[2-(dimethylamino)ethyl-methylamino]methyl]pyridin-2-yl]amino]-3-methylimidazo[4,5-b]pyridin-5-yl]oxy-4-methylpyridine-2-carbonitrile formate salt] gave an IC50 [4] of 987 nM, an IC50 [1] of 278 nM and an IC50 [5] of 137 nM. The IC50 [2] was 16.3 nM and the IC50 [3] was 27.1 nM.
`Cc1cc(C#N)ncc1Oc1cc(Nc2ccc(C(=O)N3CC(C)(O)C3)cn2)c2ncn(C)c2n1` [Compound 119, 5-[7-[[5-(3-hydroxy-3-methyl-azetidine-1-carbonyl)-2-pyridyl]amino]-3-methyl-imidazo[4,5-b]pyridin-5-yl]oxy-4-methyl-pyridine-2-carbonitrile] was tested, and the IC50 [4] was 261 nM, the IC50 [5] was 81 nM and the IC50 [2] was 2.56 nM.
In the case of `Cc1cc(C#N)ncc1Oc1cc(Nc2ccc(C(=O)N3CC[C@H](N(C)C)C3)cn2)c2ncn(C)c2n1` [Compound 133, 5-[7-[[5-[(3S)-3-(dimethylamino)pyrrolidine-1-carbonyl]pyridin-2-yl]amino]-3-methylimidazo[4,5-b]pyridin-5-yl]oxy-4-methylpyridine-2-carbonitrile], the IC50 [4] is reported as 981 nM, the IC50 [5] is reported as 121 nM and the IC50 [2] is reported as 6.67 nM.
In the case of `Cc1cc(C#N)ncc1Oc1cc(Nc2ccc(C(=O)N3CC(OC(C)C)C3)cn2)c2ncn(C)c2n1` [Compound 137, 4-methyl-5-[3-methyl-7-[[5-(3-propan-2-yloxyazetidine-1-carbonyl)pyridin-2-yl]amino]imidazo[4,5-b]pyridin-5-yl]oxypyridine-2-carbonitrile], the IC50 [4] is reported as 89 nM, the IC50 [5] is reported as 62 nM and the IC50 [2] is reported as 2.32 nM.
In the case of `Cc1cc(C#N)ncc1Oc1cc(Nc2ccc(C(=O)N3CCC(C)(O)CC3)cn2)c2ncn(C)c2n1` [Compound 138, 5-[7-[[5-(4-hydroxy-4-methylpiperidine-1-carbonyl)pyridin-2-yl]amino]-3-methylimidazo[4,5-b]pyridin-5-yl]oxy-4-methylpyridine-2-carbonitrile], the IC50 [4] is reported as 332 nM, the IC50 [5] is reported as 91 nM and the IC50 [2] is reported as 1.66 nM.
Compound `Cc1cc(C#N)ncc1Oc1cc(Nc2ccc(C(=O)N3CCO[C@@H](C)C3)cn2)c2ncn(C)c2n1` [Compound 144, 4-methyl-5-[3-methyl-7-[[5-[(2S)-2-methylmorpholine-4-carbonyl]pyridin-2-yl]amino]imidazo[4,5-b]pyridin-5-yl]oxypyridine-2-carbonitrile] has an IC50 [4] of 211 nM, an IC50 [5] of 119 nM and an IC50 [2] of 2.15 nM.
Compound `Cc1cc(C#N)ncc1Oc1cc(Nc2ccc(C(=O)N3CCO[C@H](C)C3)cn2)c2ncn(C)c2n1` [Compound 145, 4-methyl-5-[3-methyl-7-[[5-[(2R)-2-methylmorpholine-4-carbonyl]pyridin-2-yl]amino]imidazo[4,5-b]pyridin-5-yl]oxypyridine-2-carbonitrile] has an IC50 [4] of 238 nM, an IC50 [5] of 134 nM and an IC50 [2] of 2 nM.
For `Cc1cc(C#N)ncc1Oc1cc(Nc2ccc(C(=O)N3CCOC[C@@H]3C)cn2)c2ncn(C)c2n1` [Compound 147, 4-methyl-5-[3-methyl-7-[[5-[(3S)-3-methylmorpholine-4-carbonyl]pyridin-2-yl]amino]imidazo[4,5-b]pyridin-5-yl]oxypyridine-2-carbonitrile], the IC50 [4] was 213 nM, the IC50 [5] was 121 nM and the IC50 [2] was 1.66 nM.
With `Cc1cc(C#N)ncc1Oc1cc(Nc2ccc(C(=O)N3C[C@@H](C)O[C@@H](C)C3)cn2)c2ncn(C)c2n1` [Compound 148, 4-methyl-5-[3-methyl-7-[[5-[rac-(2R,6S)-2,6-dimethylmorpholine-4-carbonyl]pyridin-2-yl]amino]imidazo[4,5-b]pyridn-5-yl]oxypyridine-2-carbonitrile] the IC50 [4] was 160 nM, the IC50 [5] was 142 nM and the IC50 [2] was 2.08 nM.
`Cc1cc(C#N)ncc1Oc1cc(Nc2ccc(C(=O)N3C[C@@H](O)[C@H](N(C)C)C3)cn2)c2ncn(C)c2n1` [Compound 153, 5-{7-[5-((3R,4R)-3-Dimethylamino-4-hydroxy-pyrrolidine-1-carbonyl)-pyridin-2-ylamino]-3-methyl-3H-imidazo[4,5-b]pyridin-5-yloxy}-4-methyl-pyridine-2-carbonitrile] showed an IC50 [4] of 7580 nM, an IC50 [5] of 234 nM and an IC50 [2] of 1.83 nM.
`Cc1cc(C#N)ncc1Oc1cc(Nc2ccc(C(=O)N3C[C@H](O)[C@@H](N4CCOCC4)C3)cn2)c2ncn(C)c2n1` [Compound 154, 5-{7-[5-((3S,4S)-3-Hydroxy-4-morpholin-4-yl-pyrrolidine-1-carbonyl)-pyridin-2-ylamino]-3-methyl-3H-imidazo[4,5-b]pyridin-5-yloxy}-4-methyl-pyridine-2-carbonitrile] gave an IC50 [4] of 8720 nM, an IC50 [5] of 351 nM and an IC50 [2] of 3.36 nM.
For `Cc1cc(C#N)ncc1Oc1cc(Nc2ccc(C(=O)N3CC4CC3CO4)cn2)c2ncn(C)c2n1` (centres unmarked) [Compound 158, 4-methyl-5-[3-methyl-7-[[5-(2-oxa-5-azabicyclo[2.2.1]heptane-5-carbonyl)pyridin-2-yl]amino]imidazo[4,5-b]pyridin-5-yl]oxypyridine-2-carbonitrile], the IC50 [4] was 204 nM, the IC50 [5] was 87 nM and the IC50 [2] was 1.21 nM.
In the case of `Cc1cc(C#N)ncc1Oc1cc(Nc2ccc(C(=O)N3CCNCC3)cn2)c2ncn(C)c2n1` [Compound 178, 4-methyl-5-[3-methyl-7-[[5-(piperazine-1-carbonyl)pyridin-2-yl]amino]imidazo[4,5-b]pyridin-5-yl]oxypyridine-2-carbonitrile], the IC50 [4] is reported as 2570 nM, the IC50 [5] is reported as 189 nM and the IC50 [2] is reported as 3.39 nM.
